In ChEMBL document CHEMBL1201862, “PubChem BioAssay data set” (2004):
Activity calls are given as the source filed them.

Columns and labels:
[1] = biological target: T1, RNA-binding protein pos-1 (Caenorhabditis elegans, UniProt G5EF15); test: disruptors of C. elegans POS-1 RNA interaction – biochemical, fluorescence polarization, dose response (AID 1964);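 also: purified POS-1 fused to maltose binding protein made in E. coli; potency of compounds blocking POS-1 binding to fluorescent RNA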
T1 sequence (G5EF15 whole entry): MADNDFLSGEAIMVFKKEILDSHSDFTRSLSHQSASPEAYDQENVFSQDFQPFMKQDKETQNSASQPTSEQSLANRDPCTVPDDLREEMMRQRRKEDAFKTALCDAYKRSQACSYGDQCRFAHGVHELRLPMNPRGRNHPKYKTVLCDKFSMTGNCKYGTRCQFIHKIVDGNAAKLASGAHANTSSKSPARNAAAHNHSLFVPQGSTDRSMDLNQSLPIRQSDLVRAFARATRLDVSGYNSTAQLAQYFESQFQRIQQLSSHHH

[2] = biological target: T2, Zinc finger protein mex-5 (Caenorhabditis elegans, UniProt Q9XUB2); test: potency of MEX-5 RNA-binding blockers – biochemical, C. elegans, fluorescence polarization, dose response (AID 1960)
T2 sequence (Q9XUB2 whole entry): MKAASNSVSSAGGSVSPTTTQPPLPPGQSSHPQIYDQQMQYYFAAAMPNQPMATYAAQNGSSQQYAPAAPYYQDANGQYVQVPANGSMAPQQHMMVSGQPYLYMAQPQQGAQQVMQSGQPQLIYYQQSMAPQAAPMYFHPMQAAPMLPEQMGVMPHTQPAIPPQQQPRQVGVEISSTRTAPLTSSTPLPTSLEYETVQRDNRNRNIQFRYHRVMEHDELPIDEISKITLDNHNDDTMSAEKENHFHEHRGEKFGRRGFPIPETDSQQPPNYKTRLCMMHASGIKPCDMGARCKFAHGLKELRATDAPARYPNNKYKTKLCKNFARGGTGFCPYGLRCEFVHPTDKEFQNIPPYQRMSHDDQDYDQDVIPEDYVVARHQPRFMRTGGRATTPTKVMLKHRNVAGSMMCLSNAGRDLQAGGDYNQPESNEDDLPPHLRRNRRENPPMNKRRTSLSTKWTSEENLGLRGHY

Large T antigen = Large T antigen (Simian virus 40, UniProt P03070); type: functional, Betapolyomavirus macacae;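 also: Confirmatory-stage PubChem screen for compounds that inhibit SV40 T antigen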
Chain of Large T antigen (P03070 whole entry): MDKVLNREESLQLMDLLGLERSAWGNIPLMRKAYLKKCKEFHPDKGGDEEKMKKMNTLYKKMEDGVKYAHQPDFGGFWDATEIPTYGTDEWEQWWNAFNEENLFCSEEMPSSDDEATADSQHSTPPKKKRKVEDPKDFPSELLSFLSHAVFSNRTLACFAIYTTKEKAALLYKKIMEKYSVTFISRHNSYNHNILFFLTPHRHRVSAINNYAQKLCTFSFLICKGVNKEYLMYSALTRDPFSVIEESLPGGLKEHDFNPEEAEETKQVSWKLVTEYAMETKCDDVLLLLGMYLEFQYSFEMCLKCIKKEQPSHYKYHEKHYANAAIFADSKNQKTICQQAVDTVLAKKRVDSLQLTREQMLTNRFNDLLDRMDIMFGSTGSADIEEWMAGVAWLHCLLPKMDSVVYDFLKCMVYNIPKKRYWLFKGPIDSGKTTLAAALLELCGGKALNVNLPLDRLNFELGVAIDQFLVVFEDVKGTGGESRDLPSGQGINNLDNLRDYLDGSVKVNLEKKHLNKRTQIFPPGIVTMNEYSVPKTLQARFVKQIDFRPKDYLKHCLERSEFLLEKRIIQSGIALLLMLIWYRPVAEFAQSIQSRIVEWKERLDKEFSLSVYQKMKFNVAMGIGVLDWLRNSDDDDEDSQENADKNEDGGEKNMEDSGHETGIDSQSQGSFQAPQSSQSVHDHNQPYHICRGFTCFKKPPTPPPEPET

[3] = biological target: T3, Induced myeloid leukemia cell differentiation protein Mcl-1 (Homo sapiens, UniProt Q07820); test: blockers of MCL1 binding to BIM peptide – biochemical, fluorescence polarization, BIM-BH3 peptide, 1536-well, dose response (AID 2217)
T3 sequence (Q07820 whole entry): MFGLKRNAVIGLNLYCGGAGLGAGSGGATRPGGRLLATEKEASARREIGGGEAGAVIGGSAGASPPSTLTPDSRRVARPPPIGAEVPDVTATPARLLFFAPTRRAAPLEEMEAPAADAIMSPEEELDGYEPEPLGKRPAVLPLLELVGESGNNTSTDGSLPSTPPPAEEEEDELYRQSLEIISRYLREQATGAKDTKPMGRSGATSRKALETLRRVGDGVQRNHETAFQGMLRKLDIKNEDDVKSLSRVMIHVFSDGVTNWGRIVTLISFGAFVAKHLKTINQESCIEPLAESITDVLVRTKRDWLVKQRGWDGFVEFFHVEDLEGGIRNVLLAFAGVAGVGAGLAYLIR

Bcl-2-like protein 1 = Bcl-2-like protein 1 (Homo sapiens, UniProt Q07817); test: blockers of BCLXL peptide binding – biochemical, fluorescence polarization, 1536-well, selectivity assay for MCL1 inhibitor project, dose response (AID 2218)
Chain of Bcl-2-like protein 1 (Q07817 whole entry): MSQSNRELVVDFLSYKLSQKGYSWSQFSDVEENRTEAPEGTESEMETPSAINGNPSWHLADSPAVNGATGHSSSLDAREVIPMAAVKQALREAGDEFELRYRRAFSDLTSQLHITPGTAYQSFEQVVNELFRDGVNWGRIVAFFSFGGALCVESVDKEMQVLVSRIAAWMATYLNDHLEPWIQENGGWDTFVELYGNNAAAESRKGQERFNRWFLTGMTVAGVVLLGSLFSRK

[4] = biological target: T4, Low molecular weight phosphotyrosine protein phosphatase (Homo sapiens, UniProt P24666); type: functional; conditions: read-out: IC50_Mean;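 also: Dose-response confirmation assay measuring inhibition of LMPTP enzyme activity by fluorescence intensity read-out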
T4 sequence (P24666 whole entry): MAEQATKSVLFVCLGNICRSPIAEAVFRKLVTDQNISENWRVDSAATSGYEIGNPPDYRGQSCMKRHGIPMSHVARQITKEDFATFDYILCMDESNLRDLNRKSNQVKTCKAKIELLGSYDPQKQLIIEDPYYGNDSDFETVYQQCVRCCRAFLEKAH

[5] = Luminescence Cell-Based Dose Response to Identify Activators of 5'UTR Stem-Loop Driven Prion Protein mRNA Translation in H4-C Neuroglioblastoma Cells. [Related pubchem assays: 1829 (Project Summary), 1814 (Primary HTS)]; type: functional
[6] = Luminescence Cell-Based Dose Confirmation HTS to Identify Activators of 5'UTR Stem-Loop Driven Alpha-Synuclein mRNA Translation in H4 Neuroglioblastoma Cells. [Related pubchem assays: 1829 (Project Summary), 1814 (Primary HTS)]; type: functional
[7] = Luminescence Cell-Based Dose Response HTS to Identify Activators of Luciferase Translation or Activity in H4 […] Cells. [Related pubchem assays: 1829 (Project Summary), 1814 (Primary HTS)]; type: functional
H4 = test: Luminescence Cell-Based Dose Response HTS to Identify Activators of 5'UTR Stem-Loop Driven Prion Protein mRNA Translation in H4 Neuroglioblastoma Cells. [Related pubchem assays: 1829 (Project Summary), 1814 (Primary HTS)]; type: functional; conditions: Homo sapiens
[8] = Luminescence Cell-Based Dose Response to Identify Activators of Luciferase Translation or Activity in H4-C Neuroglioblastoma Cells. [Related pubchem assays: 1829 (Project Summary), 1814 (Primary HTS)]; type: functional
[9] = Luminescence Cell-Based Dose Confirmation to Identify Activators of 5'UTR Stem-Loop Driven Alpha-Synuclein mRNA Translation in H4 Neuroglioblastoma Cells. [Related pubchem assays: 1829 (Project Summary), 1814 (Primary HTS)]; type: functional
[10] = biological target: T5, Neuropeptide Y receptor type 1 (Homo sapiens, UniProt P25929); type: functional;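 also: HEK293 cells with a CNG channel challenged with NPY then isoproterenol; potency as antagonist that reverses NPY suppression of cAMP signal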
T5 sequence (P25929 whole entry): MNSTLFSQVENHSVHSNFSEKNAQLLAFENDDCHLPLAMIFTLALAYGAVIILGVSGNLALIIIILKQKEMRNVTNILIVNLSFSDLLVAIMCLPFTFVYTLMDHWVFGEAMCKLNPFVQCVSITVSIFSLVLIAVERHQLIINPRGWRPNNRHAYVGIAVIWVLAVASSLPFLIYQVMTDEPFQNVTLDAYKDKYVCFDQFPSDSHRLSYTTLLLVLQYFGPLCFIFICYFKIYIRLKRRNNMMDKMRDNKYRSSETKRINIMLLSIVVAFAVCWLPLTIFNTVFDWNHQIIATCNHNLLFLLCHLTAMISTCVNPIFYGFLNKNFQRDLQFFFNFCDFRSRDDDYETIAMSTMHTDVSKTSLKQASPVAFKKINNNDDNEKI

BJ [11] = test: BJ-TERT fibroblast viability loss – cell-based, RAS-independent, luminescence, dose response (AID 1933); type: functional; conditions: Homo sapiens
BJ [12] = test: cells; type: functional, cell-based; conditions: Homo sapiens
[13] = biological target: T6, Neuropeptide Y receptor type 2 (Homo sapiens, UniProt P49146); type: functional, cell-based;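 also: HEK293 cells expressing the receptor and a CNG channel; stimulus was NPY near EC95 followed by isoproterenol to raise cAMP; antagonist potency measured as restoring cAMP signal that NPY suppresses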
T6 sequence (P49146 whole entry): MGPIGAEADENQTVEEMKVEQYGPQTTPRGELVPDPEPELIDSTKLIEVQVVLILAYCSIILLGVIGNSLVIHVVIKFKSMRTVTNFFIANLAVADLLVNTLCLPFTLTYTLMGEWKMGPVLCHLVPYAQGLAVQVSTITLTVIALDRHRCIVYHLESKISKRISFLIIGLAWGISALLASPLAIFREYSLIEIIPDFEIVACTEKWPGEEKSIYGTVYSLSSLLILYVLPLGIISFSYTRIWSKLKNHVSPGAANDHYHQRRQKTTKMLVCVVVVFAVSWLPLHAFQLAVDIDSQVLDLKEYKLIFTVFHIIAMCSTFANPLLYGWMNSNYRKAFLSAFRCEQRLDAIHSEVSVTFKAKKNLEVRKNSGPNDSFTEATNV

[14] = viability of PTEN-deleted HCT116 cells – cell-based, HCT116 PTEN knockout, dose response (AID 1047); type: functional;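 also: HCT116 colon tumor cells with PTEN knocked out; cells exposed to compound for 60 hours before readout; potency for loss of cell viability measured by luminescence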
[15] = viability of HCT116 lacking mutant beta-catenin – cell-based, human colon tumor, dose response (AID 1045); type: functional;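 also: HCT116 colon tumor cells with beta catenin knocked out; cells exposed to compound for 60 hours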
BJ [16] = test: BJ-TERT-LT-ST fibroblast viability loss – cell-based, RAS-independent, luminescence, dose response (AID 1935); type: functional; conditions: Homo sapiens;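 also: BJ fibroblasts immortalized with TERT plus LT and ST oncogenes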
[17] = DRD fibroblast viability loss – cell-based, non-viral oncogenic, luminescence, dose response (AID 1934); type: functional; conditions: Homo sapiens
BJ [18] = test: growth inhibition of engineered Ras-driven BJ cells – cell-based, alamar blue fluorescence, cherrypicked samples, dose response (AID 2631); type: functional; conditions: Homo sapiens;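 also: confirmatory dose-response assay in RAS-dependent BJ fibroblasts engineered with TERT, LT and ST, with cytotoxicity read by fluorescence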
[19] = Trypanosoma cruzi growth suppression in host cells – NIH3T3 host cells, beta-gal luminescence, confirmation (AID 2044); type: functional, cell-based;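 also: intracellular parasites grown in NIH/3T3 mouse fibroblasts as host cells; luminescent beta-galactosidase reporter signal from transgenic T. cruzi replicating inside host cells; inhibitors lower the luminescence signal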
[20] = NIH3T3 cell viability loss – ATP luminescence, mouse fibroblasts, counter-screen, dose response (AID 2010); type: functional, cell-based;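 also: cells exposed to compound for about 90 hours before reading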
Aminopeptidase N = biological target: T7, Aminopeptidase N (Plasmodium falciparum FcB1/Columbia, UniProt O96935); test: malaria alanyl aminopeptidase activity blockers – biochemical, fluorogenic H-Leu-NHMec substrate, 1536-well (AID 1445); design: species or system Plasmodium falciparum 3D7, 3D7
T7 sequence (O96935 whole entry): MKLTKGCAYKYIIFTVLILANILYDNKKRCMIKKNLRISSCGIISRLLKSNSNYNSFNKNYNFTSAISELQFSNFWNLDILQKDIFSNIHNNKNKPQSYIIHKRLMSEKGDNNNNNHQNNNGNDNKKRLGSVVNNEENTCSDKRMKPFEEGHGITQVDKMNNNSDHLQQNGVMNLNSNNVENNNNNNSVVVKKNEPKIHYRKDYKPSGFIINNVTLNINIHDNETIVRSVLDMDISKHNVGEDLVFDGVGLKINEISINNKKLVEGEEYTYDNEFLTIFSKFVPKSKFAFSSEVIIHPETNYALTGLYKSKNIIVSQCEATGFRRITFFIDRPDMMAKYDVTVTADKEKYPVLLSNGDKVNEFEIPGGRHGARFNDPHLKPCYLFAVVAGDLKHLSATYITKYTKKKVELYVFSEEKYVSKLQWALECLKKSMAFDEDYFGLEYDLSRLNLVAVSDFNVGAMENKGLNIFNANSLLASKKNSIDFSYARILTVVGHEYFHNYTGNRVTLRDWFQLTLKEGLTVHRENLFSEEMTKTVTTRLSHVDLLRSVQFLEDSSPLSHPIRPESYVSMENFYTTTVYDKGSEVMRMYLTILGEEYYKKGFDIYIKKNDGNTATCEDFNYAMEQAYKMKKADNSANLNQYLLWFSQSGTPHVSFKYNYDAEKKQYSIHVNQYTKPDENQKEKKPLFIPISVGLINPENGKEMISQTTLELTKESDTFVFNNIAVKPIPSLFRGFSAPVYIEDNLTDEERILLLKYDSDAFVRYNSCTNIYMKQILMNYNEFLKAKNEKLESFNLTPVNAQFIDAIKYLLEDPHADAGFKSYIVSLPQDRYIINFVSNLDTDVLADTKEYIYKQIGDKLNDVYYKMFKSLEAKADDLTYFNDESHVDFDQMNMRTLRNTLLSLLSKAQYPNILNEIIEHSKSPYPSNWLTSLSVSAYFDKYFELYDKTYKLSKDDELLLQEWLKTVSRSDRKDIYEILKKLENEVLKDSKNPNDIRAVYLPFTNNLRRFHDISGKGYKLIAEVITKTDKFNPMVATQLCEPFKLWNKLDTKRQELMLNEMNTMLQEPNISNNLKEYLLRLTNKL

Bcl-2-like protein 10 = biological target: T8, Bcl-2-like protein 10 (Homo sapiens, UniProt Q9HD36); test: Bcl-B/TR3 peptide binding disruption – biochemical, fluorescence polarization, FITC-TR3 peptide, selectivity assay for Bfl-1 inhibitor project, primary screen (AID 748);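 also: fluorescence polarization from a fluorescein-labelled TR3 peptide binding purified Bcl-B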
T8 sequence (Q9HD36 whole entry): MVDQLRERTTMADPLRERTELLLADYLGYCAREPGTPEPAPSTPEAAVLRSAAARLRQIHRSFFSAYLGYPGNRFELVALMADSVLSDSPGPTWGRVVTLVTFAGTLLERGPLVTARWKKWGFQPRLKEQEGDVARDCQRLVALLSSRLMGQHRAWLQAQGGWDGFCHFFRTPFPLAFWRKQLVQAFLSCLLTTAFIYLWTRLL

Estrogen receptor beta = Estrogen receptor beta (Homo sapiens, UniProt Q92731); test: blockers of SRC-3 recruitment to ERβ – biochemical, ELISA, streptavidin-HRP readout, orthogonal assay, confirmation (AID 1060)
Chain of Estrogen receptor beta (Q92731 whole entry): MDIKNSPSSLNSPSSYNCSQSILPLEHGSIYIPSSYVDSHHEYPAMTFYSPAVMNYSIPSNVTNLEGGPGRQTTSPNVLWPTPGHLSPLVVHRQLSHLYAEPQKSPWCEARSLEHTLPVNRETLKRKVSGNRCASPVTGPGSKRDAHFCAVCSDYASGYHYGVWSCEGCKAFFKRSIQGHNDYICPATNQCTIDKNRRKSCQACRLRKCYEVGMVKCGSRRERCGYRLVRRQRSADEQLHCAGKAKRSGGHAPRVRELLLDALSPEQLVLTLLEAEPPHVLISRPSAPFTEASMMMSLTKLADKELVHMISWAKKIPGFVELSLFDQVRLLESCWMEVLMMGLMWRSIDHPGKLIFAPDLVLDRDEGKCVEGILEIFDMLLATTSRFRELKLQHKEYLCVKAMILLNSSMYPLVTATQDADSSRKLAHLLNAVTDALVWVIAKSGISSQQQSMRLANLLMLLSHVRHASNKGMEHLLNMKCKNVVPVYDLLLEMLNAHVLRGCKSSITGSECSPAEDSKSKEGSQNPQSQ

[21] = biological target: T3, Induced myeloid leukemia cell differentiation protein Mcl-1; type: functional
Genome polyprotein = Genome polyprotein (dengue virus type 2, UniProt P29990); test: flavivirus cap methylation enzyme inhibition – biochemical, confirmation dose response, primary screen (AID 588689); type: functional
Chain of Genome polyprotein (P29990 2492-3391 limits assumed): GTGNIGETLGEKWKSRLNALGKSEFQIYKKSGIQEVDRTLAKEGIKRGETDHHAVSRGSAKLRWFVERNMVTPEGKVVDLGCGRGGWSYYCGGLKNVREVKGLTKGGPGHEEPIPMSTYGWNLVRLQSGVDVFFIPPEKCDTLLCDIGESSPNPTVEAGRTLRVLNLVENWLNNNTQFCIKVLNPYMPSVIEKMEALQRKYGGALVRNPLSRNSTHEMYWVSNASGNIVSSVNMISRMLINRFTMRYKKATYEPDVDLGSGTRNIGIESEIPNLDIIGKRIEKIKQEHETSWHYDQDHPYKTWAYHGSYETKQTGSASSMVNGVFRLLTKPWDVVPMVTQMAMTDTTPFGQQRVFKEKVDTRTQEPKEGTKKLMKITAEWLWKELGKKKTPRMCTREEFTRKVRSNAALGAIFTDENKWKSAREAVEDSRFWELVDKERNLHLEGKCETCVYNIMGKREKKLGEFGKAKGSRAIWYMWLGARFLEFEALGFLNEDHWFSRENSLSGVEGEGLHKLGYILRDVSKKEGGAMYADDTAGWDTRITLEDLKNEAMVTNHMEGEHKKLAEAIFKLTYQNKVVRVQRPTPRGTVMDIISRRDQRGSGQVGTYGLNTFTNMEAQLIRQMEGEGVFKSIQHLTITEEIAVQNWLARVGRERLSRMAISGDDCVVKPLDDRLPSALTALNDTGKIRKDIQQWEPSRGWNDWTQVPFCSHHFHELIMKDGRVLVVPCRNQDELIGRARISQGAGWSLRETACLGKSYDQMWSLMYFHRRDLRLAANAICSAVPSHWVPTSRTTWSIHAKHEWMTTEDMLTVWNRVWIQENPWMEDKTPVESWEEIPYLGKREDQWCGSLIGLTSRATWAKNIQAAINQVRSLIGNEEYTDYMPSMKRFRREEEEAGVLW

Protein Tat = biological target: T9, Protein Tat (Human immunodeficiency virus type 1 group M subtype B (isolate HXB2)(HIV-1), UniProt P04608); type: functional;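 also: tat binding to TAR RNA read out by fluorescence polarization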
T9 sequence (P04608 whole entry): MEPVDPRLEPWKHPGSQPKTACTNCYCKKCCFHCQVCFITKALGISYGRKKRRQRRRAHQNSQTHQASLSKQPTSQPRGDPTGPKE

Compound: Cc1ccc(-c2cc(-c3ccco3)c(C#N)c(=O)[nH]2)cc1
- EC50 [1]: 26.1 µM (active)
- EC50 [2]: 8.36 µM (inconclusive)
- IC50 (Large T antigen): 64.5 µM (active)
- IC50 [3]: > 12.1 µM (not active)
- IC50 (Bcl-2-like protein 1): > 109 µM (not active)
- IC50 [4]: 49.2 µM (inactive)

Compound: Cc1ccc(-c2cc(NC(=O)c3ccccc3)on2)cc1
- EC50 [5]: 0.632 µM (active)
- EC50 [6]: < 0.1 µM (active)
- EC50 [7]: 0.137 µM (active)
- EC50 (H4): 9.75 µM (active)
- EC50 [8]: 0.334 µM (active)
- EC50 [9]: 0.463 µM (active)

Compound: O=C(/C=C/c1cccc2ccccc12)c1ccncc1
- IC50 [10]: 5.47 µM (active)
- EC50 (BJ [11]): 10.2 µM (inconclusive)
- EC50 (BJ [12]): > 150 µM (inconclusive)
- IC50 [13]: 4.95 µM (active)
- EC50 [14]: 8.54 µM (active)
- EC50 [15]: 5.26 µM (active)
- EC50 (BJ [16]): > 75 µM (inconclusive)
- EC50 [17]: 16.5 µM (active)
- EC50 (BJ [18]): > 133 µM (inactive)

Compound: Clc1ccccc1/C=N/Nc1cc(N2CCOCC2)ncn1
- EC50 [5]: 1.05 µM (active)
- EC50 [6]: < 0.1 µM (active)
- EC50 (H4): 9.34 µM (active)
- EC50 [8]: 0.394 µM (active)
- EC50 [9]: 0.564 µM (active)

Compound: CN(C)CCCSc1nc(-c2ccccc2)nc2c1CCC2
- IC50 [10]: 7.33 µM (active)
- EC50 [19]: < 0.1 µM (active)
- IC50 [13]: 18.2 µM (not active)
- EC50 [20]: > 60 µM (not active)
- EC50 (cells): 0.12 µM (active)

Compound: O=C(CSc1nnc(-c2ccco2)c(-c2ccco2)n1)Nc1ccccc1
- IC50 (Aminopeptidase N): 97.7 µM (active)
- IC50 (Bcl-2-like protein 10): 15.3 µM (active)
- IC50 (Estrogen receptor beta): < 0.023 µM (not active)
- IC50 [21]: 3.11 µM (active)
- IC50 (Genome polyprotein): > 100 µM (active)
- IC50 (Protein Tat): 5.16 µM (inconclusive)
